The values below come from article PMC12645998, “Optimization of VE607 to generate analogs with improved neutralization activities against SARS-CoV-2 variants” (Journal of Virology, 2025).

Several values for one entry are separate records, joined by “and”; a condition that tells them apart may be missing. Equal entries are not always repeated. Where two headings read alike, the source gives them in different places.

The test system of data set [1] is SARS-CoV-2 BA.4/5 Spike pseudovirus. In words: organism not typed. The data set is classed as cell-based. To be noted: read-out: IC50 BA.4/5.
Data set [2] concerns SARS-CoV-2 EG.5.1 Spike pseudovirus. In words: organism not typed. To be noted: read-out: IC50 EG.5.1. The data set is classed as cell-based.
For data set [3], the system named is SARS-CoV-2 B.1.1.7 Spike pseudovirus. Description: organism not typed. The data set is classed as cell-based. To be noted: read-out: IC50 B.1.1.7.
In data set [4] the test system is authentic SARS-CoV-2 XBB.1. In words: microbe, parasite or virus in culture. To be noted: Severe acute respiratory syndrome coronavirus 2, Vero C1008, read-out: IC50 authentic SARS-CoV-2 XBB.1. In kind it is cell-based.
The subject of data set [5] is pseudoviral particles bearing the Spike glycoprotein from SARS-CoV-2. Description: microbe, parasite or virus in culture. In kind it is cell-based. To be noted: pseudovirus, 293T-ACE2 cells, compounds up to 100 µM.
The conditions of data set [6]: in vivo.
For data set [7], the system named is SARS-CoV-2 XBB.1.5 Spike pseudovirus. Description: organism not typed. In kind it is cell-based. To be noted: read-out: IC50 XBB.1.5.
Another data set relates to SARS-CoV-2WA1-nLuc. Details: species or system K18-hACE2 mice. As to conditions: mouse, in vivo.
Data set [8] has as its system SARS-CoV-2 KP.3.1.1 Spike pseudovirus. Description: organism not typed. In kind it is cell-based. To be noted: read-out: IC50 KP.3.1.1.
The test system of a further data set is Vero-E6 cells. Description: Cell viability test (CellTiter-Glo), Vero-E6. As to conditions: concentrations up to 100 µM, 48 h. A general note: Cellular ATP, detected with luciferase, serves as a proxy for viable cell number.
The next data set concerns 293T-ACE2 cells. In words: Cell viability test (CellTiter-Glo), 293T-ACE2. To be noted: concentrations up to 100 µM, 48 h.
Data set [9] concerns SARS-CoV-2 JN.1 Spike pseudovirus. In words: organism not typed. In kind it is cell-based. To be noted: read-out: IC50 JN.1.
Data set [10] deals with SARS-CoV-2 XBB.1.16 Spike pseudovirus. In words: organism not typed. The data set is classed as cell-based. As to conditions: read-out: IC50 XBB.1.16.
Data set [11] relates to pseudoviral particles carrying SARS-CoV-1 S. Description: microbe, parasite or virus in culture. The data set is classed as cell-based.
The test system of data set [12] is SARS-CoV-2 BA.2.86 Spike pseudovirus. In words: organism not typed. The data set is classed as cell-based. As to conditions: read-out: IC50 BA.2.86.
Data set [13] has as its system SARS-CoV-2 XEC Spike pseudovirus. Description: organism not typed. The data set is classed as cell-based. To be noted: read-out: IC50 XEC.
For data set [14], the system named is SARS-CoV-2 HK.3 Spike pseudovirus. In words: organism not typed. The data set is classed as cell-based. As to conditions: read-out: IC50 HK.3.
In data set [15] the test system is SARS-CoV-2 (Wuhan strain) ectodomain SΔTM trimers. As to conditions: 0.1 µM labeled Spike; 50 µM compound, 0.3 µM CV3-13, 0.6 µM ACE2; unbound Spike 40% ± 2%.
Data set [16] has as its system pseudoviral particles carrying VSV-G. Description: microbe, parasite or virus in culture. The data set is classed as cell-based. To be noted: Vesicular stomatitis virus.
A short description of data set [17]: Solubility in phosphate-buffered saline.
[18] abbreviates: Severe acute respiratory syndrome coronavirus 2, 293T/ACE2, read-out: IC50 SARS-CoV-2, Table 1.
The mark [19] stands for this setting: Severe acute respiratory syndrome coronavirus, 293T/ACE2, read-out: IC50 SARS-CoV-1.
Setting [20] is: 293T/ACE2, read-out: IC50 VSV-G.

On to `CN(C)C[C@@H](O)COc1cc(Br)cc(OC[C@H](O)CN(C)C)c1` [Compound 27], for which the IC50 in data set [1] came out at 1450 nM; in [2] it was 1130 nM; in data set [3], 1120 nM; in data set [4], 24000 nM; in data set [5] (setting [18]) it was 440 nM; in data set [5] (read-out: IC50 SARS-CoV-2, Table 1), 437 nM. Besides, the IC50 in data set [7] was 1040 nM; in data set [8], 2380 nM; in data set [9], 1340 nM; in data set [10] it was 1800 nM; in [11] (setting [19]), 620 nM; in [11] (read-out: IC50 SARS-CoV-1), 625 nM and 930 nM. Also, the IC50 is 3300 nM in [12]; 1790 nM in [13]; 730 nM in data set [14]; 52400 nM in data set [16] (setting [20]); > 100000 nM in data set [16] (293T/ACE2, read-out: IC50 VSVG). For the same molecule, the Concentration in plasma in data set [6] (both, K18-hACE2, mouse) was ~ 1.5 µM. Moreover, the Plasma retention entry in [6] (mouse) is on record as “short plasma retention”. For the same molecule, the Brain penetration entry in [6] (mouse, ip) is “minimal penetration in the brain”. Besides, the “Protection / survival outcome” value with SARS-CoV-2WA1-nLuc is listed as “succumbed to virus-induced mortality”. The “Survival extended compared to the control group” value in the data set on SARS-CoV-2WA1-nLuc was 1 days. The “Toxicity in Vero-E6 cells” value in the data set on Vero-E6 cells was “no toxicity”. Besides, the “Toxicity in 293T-ACE2 cells” value in the data set on 293T-ACE2 cells was “no toxicity”. The RBD-up conformation occupancy in [15] is 55% ± 2%.
Regarding `O[C@@H](COc1cccc(OC[C@H](O)CN2CCCCC2)c1)CN1CCCCC1` [(R,R)-VE607, reference compound], the IC50 amounted to 5780 nM in data set [1]; 1310 nM in [2]; 1170 nM in [3]; 58600 nM in data set [4]; 980 nM in [5] (setting [18]); 990 nM in data set [7]. Also, the IC50 in [8] came out at 4680 nM; in data set [9] it was 6400 nM; in data set [10], 2030 nM; in data set [11] (setting [19]), 800 nM; in data set [11] (read-out: IC50 SARS-CoV-1) it was 890 nM; in data set [12] it was 2640 nM. Moreover, the IC50 in data set [13] was 3900 nM; in data set [14] it was 3880 nM; in [16] (setting [20]), > 100000 nM; in data set [16] (293T/ACE2, read-out: IC50 VSVG), > 100000 nM.
For the molecule `Cc1cccc(N2CCN(C[C@@H](O)COc3cccc(OC[C@H](O)CN4CCN(c5cccc(C)c5)CC4)c3)CC2)c1` [Compound 18], in data set [17], the “Solubility in phosphate-buffered saline (PBS)” value is listed as “b Insoluble in phosphate-buffered saline (PBS)”.
As to `CN1CCN(C[C@@H](O)COc2cc(Br)cc(OC[C@H](O)CN3CCN(C)CC3)c2)CC1` [Compound 30], the IC50 worked out at 4880 nM in [1]; 1500 nM in data set [2]; 1260 nM in data set [3]; 38000 nM in [4]; 1480 nM in data set [5] (setting [18]); 1050 nM in [7]. The IC50 is 2160 nM in data set [8]; 3900 nM in data set [9]; 1400 nM in data set [10]; 1980 nM in [11] (setting [19]); 1310 nM in data set [11] (read-out: IC50 SARS-CoV-1); 3520 nM in data set [12]. The IC50 in data set [13] was 3090 nM; in data set [14] it was 540 nM; in data set [16] (setting [20]), 80800 nM; in data set [16] (293T/ACE2, read-out: IC50 VSVG) it was > 100000 nM. The “Toxicity in Vero-E6 cells” value in the data set with Vero-E6 cells is given as “no toxicity”. Besides, the “Toxicity in 293T-ACE2 cells” value with 293T-ACE2 cells was “no toxicity”.
As for `CCN(C)C[C@@H](O)COc1cc(Br)cc(OC[C@H](O)CN(C)CC)c1` [Compound 33], the IC50 stood at 2810 nM in data set [1]; 1820 nM in data set [2]; 1440 nM in data set [3]; 17000 nM in data set [4]; 1710 nM in data set [5] (setting [18]); 2430 nM in [7]. Besides, the IC50 was found to be 2990 nM in data set [8]; 2020 nM in data set [9]; 2130 nM in data set [10]; 1440 nM in [11] (setting [19]); 1300 nM in data set [11] (read-out: IC50 SARS-CoV-1); 2970 nM in data set [12]. Also, the IC50 in [13] is 2390 nM; in [14] it was 2350 nM; in data set [16] (setting [20]), > 100000 nM; in data set [16] (293T/ACE2, read-out: IC50 VSVG), > 100000 nM. In the data set with Vero-E6 cells, the “Toxicity in Vero-E6 cells” value was “no toxicity”. Further, in the data set with 293T-ACE2 cells, the “Toxicity in 293T-ACE2 cells” value is given as “no toxicity”. Moreover, the RBD-up conformation occupancy in [15] is on record as 61% ± 2%.
Turning to ACE2, in [15], the RBD-up conformation occupancy is on record as 67% ± 2%.
